Assays:
[1] = target: T1, GCK/MAP4K2 (Homo sapiens, UniProt Q12851); assay: Kinase selectivity panel, GCK/MAP4K2; format: biochemical
T1 sequence (Q12851 1-820): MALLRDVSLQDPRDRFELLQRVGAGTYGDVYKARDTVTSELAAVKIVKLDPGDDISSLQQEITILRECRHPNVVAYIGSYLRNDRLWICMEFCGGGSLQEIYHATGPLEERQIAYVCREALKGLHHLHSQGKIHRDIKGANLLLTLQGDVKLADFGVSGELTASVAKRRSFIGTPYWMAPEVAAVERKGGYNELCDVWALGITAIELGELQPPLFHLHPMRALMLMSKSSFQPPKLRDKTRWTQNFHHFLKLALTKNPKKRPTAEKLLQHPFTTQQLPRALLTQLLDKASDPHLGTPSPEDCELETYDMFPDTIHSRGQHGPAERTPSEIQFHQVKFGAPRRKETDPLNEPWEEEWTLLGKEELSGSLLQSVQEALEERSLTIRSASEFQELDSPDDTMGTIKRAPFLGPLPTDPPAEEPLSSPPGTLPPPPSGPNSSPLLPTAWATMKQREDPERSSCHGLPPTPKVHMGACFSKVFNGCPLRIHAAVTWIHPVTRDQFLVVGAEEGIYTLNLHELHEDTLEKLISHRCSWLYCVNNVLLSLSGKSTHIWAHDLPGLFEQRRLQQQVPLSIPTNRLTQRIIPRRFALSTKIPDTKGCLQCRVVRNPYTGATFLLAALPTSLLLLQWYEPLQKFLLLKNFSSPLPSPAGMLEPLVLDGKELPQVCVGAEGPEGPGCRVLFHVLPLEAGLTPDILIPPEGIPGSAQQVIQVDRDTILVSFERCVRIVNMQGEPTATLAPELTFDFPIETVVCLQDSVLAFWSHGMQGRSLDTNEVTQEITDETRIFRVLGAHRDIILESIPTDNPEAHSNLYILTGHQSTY
Source text: (§1) The data in Table 42 also provides the fold selectivity of the two compounds in favour of MAP4K4 over the tested kinase. The fold selectivity is indicated in parenthesis.

[2] = target: ABL1 (Homo sapiens, UniProt P00519); assay: Kinase selectivity panel, ABL1; format: biochemical
Source text: as §1

[3] = target: Aurora B (Homo sapiens, UniProt Q96GD4); assay: Kinase selectivity panel, Aurora B; format: biochemical; settings: in favour of MAP4K4
Source text: as §1

[4] = target: MINK1/MAP4K6 (Homo sapiens, UniProt Q8N4C8); assay: Kinase selectivity panel, MINK1/MAP4K6; format: biochemical; settings: read-out: pIC50 MINK1/MAP4K6 (converted)
Source text: as §1

[5] = target: T2, NUAK1 (Homo sapiens, UniProt O60285); assay: Kinase selectivity panel, NUAK1; format: biochemical
T2 sequence (O60285 1-661): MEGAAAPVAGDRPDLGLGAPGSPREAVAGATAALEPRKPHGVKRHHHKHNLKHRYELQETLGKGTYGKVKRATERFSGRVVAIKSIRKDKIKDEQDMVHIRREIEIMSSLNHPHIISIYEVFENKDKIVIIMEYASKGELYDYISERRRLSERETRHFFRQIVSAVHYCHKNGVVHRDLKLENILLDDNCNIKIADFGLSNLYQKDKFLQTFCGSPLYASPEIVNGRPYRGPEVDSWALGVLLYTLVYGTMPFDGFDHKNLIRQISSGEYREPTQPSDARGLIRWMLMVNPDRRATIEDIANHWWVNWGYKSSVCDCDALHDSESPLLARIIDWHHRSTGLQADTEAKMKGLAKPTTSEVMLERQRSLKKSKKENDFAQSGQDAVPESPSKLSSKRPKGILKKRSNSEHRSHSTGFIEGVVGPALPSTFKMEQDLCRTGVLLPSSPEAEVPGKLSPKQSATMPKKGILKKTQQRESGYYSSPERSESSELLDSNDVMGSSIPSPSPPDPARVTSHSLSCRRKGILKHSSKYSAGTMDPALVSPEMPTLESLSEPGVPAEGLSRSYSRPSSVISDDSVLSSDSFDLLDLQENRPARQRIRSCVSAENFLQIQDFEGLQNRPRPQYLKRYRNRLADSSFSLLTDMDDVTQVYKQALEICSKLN
Source text: as §1

[6] = target: TNIK/MAP4K7 (Homo sapiens, UniProt Q9UKE5); assay: Kinase selectivity panel, TNIK/MAP4K7; format: biochemical; settings: read-out: pIC50 TNIK/MAP4K7 (converted)
Source text: as §1

[7] = system: mice undergoing experimental myocardial infarction; assay: Infarct size in mice undergoing experimental myocardial infarction; format: in vivo; settings: compared to vehicle control (DMSO)
Protocol: To test if target validation and compound development in hiPSC-CMs might predict success in a whole-animal context, mice undergoing experimental myocardial infarction were treated with Ex-78 or the vehicle control (DMSO) (FIG. 6). The suppression of cardiac muscle cell death achieved roughly a 55% reduction in infarct size as a proportion of the area at ischemic risk compared to control.

[8] = target: T3, GLK/MAP4K3 (Homo sapiens, UniProt Q8IVH8); assay: Kinase selectivity panel, GLK/MAP4K3; format: biochemical
T3 sequence (Q8IVH8 1-894): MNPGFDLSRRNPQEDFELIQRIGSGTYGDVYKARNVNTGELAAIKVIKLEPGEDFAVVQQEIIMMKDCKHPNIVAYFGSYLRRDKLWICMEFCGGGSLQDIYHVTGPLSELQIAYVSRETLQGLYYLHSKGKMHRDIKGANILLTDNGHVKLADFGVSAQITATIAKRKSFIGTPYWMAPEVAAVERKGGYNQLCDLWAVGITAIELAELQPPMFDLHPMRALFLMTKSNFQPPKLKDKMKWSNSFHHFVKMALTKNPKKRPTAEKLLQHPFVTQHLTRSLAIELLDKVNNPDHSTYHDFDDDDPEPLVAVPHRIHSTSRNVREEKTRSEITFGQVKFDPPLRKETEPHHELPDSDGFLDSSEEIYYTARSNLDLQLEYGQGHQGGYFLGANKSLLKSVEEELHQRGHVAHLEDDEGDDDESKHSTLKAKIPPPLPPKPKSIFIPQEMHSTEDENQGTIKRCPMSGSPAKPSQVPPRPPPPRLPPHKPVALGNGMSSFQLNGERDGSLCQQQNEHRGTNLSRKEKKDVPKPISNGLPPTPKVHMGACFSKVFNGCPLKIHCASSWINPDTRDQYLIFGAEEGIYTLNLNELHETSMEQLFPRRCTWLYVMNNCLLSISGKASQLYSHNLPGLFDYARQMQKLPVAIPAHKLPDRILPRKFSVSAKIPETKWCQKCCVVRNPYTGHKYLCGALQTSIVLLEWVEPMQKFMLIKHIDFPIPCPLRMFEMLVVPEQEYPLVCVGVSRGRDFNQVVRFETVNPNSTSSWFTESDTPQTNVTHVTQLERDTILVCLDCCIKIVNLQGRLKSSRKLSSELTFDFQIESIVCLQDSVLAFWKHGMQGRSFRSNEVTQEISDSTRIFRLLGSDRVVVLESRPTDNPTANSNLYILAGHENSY
Source text: as §1

Chain of ABL1 (P00519 whole entry, species assumed): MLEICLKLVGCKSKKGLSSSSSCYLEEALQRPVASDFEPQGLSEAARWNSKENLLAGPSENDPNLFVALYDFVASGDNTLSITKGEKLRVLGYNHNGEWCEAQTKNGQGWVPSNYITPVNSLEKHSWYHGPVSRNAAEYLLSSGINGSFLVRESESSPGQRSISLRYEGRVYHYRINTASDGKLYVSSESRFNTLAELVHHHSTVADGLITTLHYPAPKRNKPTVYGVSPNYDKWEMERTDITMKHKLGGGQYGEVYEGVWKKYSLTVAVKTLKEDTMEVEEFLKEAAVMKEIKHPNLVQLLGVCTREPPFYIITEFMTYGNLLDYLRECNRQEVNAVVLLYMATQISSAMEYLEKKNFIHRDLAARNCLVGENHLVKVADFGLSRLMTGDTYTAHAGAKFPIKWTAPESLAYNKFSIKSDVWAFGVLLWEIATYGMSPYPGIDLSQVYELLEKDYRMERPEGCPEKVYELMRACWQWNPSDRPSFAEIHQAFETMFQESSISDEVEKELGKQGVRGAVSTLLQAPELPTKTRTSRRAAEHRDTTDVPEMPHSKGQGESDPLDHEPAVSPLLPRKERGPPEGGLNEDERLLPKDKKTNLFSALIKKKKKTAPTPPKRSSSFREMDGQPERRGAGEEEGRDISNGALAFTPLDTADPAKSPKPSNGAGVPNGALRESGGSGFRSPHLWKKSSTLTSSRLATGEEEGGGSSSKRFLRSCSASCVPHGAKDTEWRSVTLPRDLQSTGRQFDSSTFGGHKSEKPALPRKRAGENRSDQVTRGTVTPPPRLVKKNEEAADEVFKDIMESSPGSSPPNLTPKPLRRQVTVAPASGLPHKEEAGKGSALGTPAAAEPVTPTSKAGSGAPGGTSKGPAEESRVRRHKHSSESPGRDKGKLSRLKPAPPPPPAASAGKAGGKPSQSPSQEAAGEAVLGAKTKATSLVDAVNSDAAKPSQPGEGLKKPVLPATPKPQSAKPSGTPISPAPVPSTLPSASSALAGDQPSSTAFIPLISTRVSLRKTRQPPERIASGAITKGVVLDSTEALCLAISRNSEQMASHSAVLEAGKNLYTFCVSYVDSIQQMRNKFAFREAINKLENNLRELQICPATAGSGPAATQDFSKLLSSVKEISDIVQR
Chain of MINK1/MAP4K6 (Q8N4C8 whole entry): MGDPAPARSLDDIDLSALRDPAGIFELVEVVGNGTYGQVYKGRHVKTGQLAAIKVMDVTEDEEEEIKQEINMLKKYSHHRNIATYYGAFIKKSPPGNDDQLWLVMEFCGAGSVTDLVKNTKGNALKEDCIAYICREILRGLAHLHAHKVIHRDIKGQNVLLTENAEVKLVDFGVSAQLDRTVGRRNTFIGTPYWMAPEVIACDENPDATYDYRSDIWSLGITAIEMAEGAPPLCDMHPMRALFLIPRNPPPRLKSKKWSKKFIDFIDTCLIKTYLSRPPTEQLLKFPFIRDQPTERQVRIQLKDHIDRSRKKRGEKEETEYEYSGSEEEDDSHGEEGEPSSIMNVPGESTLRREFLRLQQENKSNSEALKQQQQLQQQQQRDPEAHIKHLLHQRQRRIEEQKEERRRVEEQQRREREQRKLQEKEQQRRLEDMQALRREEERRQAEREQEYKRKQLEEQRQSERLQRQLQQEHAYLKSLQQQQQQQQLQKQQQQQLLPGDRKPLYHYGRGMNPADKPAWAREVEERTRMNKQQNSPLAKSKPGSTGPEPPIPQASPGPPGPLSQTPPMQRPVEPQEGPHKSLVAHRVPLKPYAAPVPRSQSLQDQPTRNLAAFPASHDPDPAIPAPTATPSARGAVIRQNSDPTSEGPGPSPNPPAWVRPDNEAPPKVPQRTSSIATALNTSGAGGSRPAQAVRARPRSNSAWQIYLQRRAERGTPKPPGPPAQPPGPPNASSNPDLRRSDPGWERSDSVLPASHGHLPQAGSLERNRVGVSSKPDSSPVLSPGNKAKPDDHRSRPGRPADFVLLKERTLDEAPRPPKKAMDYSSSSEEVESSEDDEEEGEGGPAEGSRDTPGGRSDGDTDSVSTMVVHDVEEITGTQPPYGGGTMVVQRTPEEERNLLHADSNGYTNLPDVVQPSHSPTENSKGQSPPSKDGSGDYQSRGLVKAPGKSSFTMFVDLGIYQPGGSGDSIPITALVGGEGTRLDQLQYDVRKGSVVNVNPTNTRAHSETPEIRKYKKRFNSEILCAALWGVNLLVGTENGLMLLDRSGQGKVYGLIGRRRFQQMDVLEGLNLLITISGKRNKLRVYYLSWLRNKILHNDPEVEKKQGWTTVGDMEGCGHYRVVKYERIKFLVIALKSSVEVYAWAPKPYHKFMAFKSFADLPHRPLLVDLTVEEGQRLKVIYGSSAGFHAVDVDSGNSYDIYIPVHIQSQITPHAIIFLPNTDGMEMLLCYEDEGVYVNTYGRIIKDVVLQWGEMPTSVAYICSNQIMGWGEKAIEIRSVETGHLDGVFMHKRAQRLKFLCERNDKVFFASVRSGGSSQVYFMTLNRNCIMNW
Chain of Aurora B (Q96GD4 whole entry): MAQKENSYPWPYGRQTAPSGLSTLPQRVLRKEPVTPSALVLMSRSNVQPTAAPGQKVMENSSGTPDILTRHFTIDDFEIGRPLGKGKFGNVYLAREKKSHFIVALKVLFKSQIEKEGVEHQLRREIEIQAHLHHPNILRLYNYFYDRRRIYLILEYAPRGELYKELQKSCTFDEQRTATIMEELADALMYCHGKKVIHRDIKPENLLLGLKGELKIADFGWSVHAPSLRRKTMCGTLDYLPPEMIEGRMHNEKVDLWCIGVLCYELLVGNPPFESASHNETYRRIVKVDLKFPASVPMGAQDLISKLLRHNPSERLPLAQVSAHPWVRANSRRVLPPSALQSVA
Chain of TNIK/MAP4K7 (Q9UKE5 whole entry): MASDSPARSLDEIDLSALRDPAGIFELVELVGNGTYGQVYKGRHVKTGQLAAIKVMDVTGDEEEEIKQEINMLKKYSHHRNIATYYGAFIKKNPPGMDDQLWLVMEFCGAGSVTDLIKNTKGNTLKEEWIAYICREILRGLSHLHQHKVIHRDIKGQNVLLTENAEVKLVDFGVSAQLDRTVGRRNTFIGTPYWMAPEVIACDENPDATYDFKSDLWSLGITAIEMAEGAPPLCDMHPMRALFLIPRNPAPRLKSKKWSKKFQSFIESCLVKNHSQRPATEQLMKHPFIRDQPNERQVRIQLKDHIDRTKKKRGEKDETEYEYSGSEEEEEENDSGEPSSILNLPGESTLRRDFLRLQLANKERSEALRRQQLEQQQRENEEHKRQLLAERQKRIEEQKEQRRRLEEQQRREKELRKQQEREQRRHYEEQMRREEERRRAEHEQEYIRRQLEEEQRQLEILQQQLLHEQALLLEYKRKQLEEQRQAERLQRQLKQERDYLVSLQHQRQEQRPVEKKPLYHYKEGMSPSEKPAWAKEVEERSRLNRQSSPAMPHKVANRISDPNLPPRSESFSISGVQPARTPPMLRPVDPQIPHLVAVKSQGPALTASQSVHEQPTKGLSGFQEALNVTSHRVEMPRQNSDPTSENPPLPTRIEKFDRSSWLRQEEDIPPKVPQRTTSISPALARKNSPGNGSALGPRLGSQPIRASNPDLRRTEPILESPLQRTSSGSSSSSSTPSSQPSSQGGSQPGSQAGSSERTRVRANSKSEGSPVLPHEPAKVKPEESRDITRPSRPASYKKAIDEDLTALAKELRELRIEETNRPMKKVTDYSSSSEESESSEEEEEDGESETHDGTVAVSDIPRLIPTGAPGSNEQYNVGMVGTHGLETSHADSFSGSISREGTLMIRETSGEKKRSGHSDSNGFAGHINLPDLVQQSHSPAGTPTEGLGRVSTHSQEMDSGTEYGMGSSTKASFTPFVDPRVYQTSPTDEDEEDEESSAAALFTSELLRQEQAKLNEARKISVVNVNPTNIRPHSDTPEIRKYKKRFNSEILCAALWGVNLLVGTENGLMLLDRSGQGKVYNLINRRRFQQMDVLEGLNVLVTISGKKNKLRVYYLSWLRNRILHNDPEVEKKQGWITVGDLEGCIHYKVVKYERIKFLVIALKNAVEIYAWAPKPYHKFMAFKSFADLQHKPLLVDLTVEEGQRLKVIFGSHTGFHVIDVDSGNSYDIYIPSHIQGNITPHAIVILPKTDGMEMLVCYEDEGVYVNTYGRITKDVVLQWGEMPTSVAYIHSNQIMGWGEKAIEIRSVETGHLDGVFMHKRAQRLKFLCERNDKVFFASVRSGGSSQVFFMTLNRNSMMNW

Question: Which results are given for `CC(C)(O)CCOc1ccc(-c2cn(-c3cccnc3)c3nc[nH]c(=O)c23)cc1` [Ex-78, 5-(4-(3-hydroxy-3-methylbutoxy)phenyl)-7-(pyridin-3-yl)-3,7-dihydro-4H-pyrrolo[2,3-d]pyrimidin-4-one]?
Answer: fold selectivity MAP4K4 over GCK/MAP4K2 ([1]; in favour of MAP4K4): (32) fold; IC50 ([1]; read-out: pIC50 GCK/MAP4K2 (converted)): 1000 nM; fold selectivity MAP4K4 over ABL1 ([2]; in favour of MAP4K4): (251) fold; IC50 ([2]; read-out: pIC50 ABL1 (converted)): 7940 nM; fold selectivity MAP4K4 over Aurora B [3]: (1000) fold; IC50 [4]: 63.1 nM; fold selectivity MAP4K4 over NUAK1 ([5]; in favour of MAP4K4): (16) fold; IC50 ([5]; read-out: pIC50 NUAK1 (converted)): 501 nM; IC50 [6]: 126 nM; reduction in infarct size as a proportion of the area at ischemic risk [7]: ~55%; fold selectivity MAP4K4 over GLK/MAP4K3 ([8]; in favour of MAP4K4): (50) fold; IC50 ([8]; read-out: pIC50 GLK/MAP4K3 (converted)): 1580 nM
